Data taken from US20040208828A1, “Enantiomer-pure (4S,8S)- and (4R,8R)-4-p-nitrobenzyl-8-methyl-3,6,9-triaza-3N,6N,9N-tricarboxymethyl-1,11-undecanedioic acid and derivatives thereof, process for their production and use for the production of pharmaceutical agents” (priority 2003, published 2004).

Assays:
[1] = McMurry et al., J. Med. Chem. (1998), 41, 3546-3549; cited from earlier work
[2] = compared to the unsubstituted DTPA; cited from earlier work
[3] = radiotoxicity of the metal complex in vivo; conditions: compared to compound VIa
Text: (§1) In this case, as was discovered, the configuration of methyl- and benzyl substituent must be present as (4S,8S) (see compound Va) or (4R,8R) (see compound Vb) to achieve the described positive effect.

[4] = competition complexation: mixture of one equivalent each of Va, VIa and Gd(III) salt; type: physicochemical; conditions: one equivalent each of Va (R=-NO2)
Text: as §1

[5] = thermodynamic stability constant of the metal complex (logKY); type: physicochemical; conditions: in vitro
Text: as §1

[6] = complex stability / complexing properties, comparison of stereoisomers; type: physicochemical; conditions: comparison of configurations (4S,8S)/(4R,8R) with (4S,8R)/(4R,8S)
Text: as §1

Question: With `O=C(O)CN(CC(=O)O)[C@H](Cc1ccc([N+](=O)[O-])cc1)CN(CC(=O)O)[C@@H]1CCCC[C@H]1N(CC(=O)O)CC(=O)O` [II] as the compound, how does the “in-vitro and in-vivo stability” value [1] read?
Answer: higher in-vitro and in-vivo stability than compound III

Question: Which “complex stability (in words)” value [2] does the source give for `CC(CN(CC(=O)O)C[C@H](Cc1ccc([N+](=O)[O-])cc1)N(CC(=O)O)CC(=O)O)N(CC(=O)O)CC(=O)O` (stereo partly shown) [MX-DTPA] here?
Answer: increased complex stability compared to the unsubstituted DTPA

Question: Which “radiotoxicity of the metal complex” value [3] does the source give for `C[C@@H](CN(CC(=O)O)C[C@H](Cc1ccc([N+](=O)[O-])cc1)N(CC(=O)O)CC(=O)O)N(CC(=O)O)CC(=O)O` [Va] here?
Answer: reduced in vivo compared to compound VIa

Question: And the “Gd complex formed in competition” value [4]?
Answer: almost exclusively the Gd complex of compound Va is formed

Question: What about the “thermodynamic stability constant logKY” value [5] of the same compound?
Answer: 24.7±0.7

Question: What about the “complex stability / complexing properties (in words)” value [6] of the same compound?
Answer: considerably better complexing properties than compounds VIa and VIb

Question: Which “complex stability / complexing properties (in words)” value [6] does the source give for `C[C@H](CN(CC(=O)O)C[C@@H](Cc1ccc([N+](=O)[O-])cc1)N(CC(=O)O)CC(=O)O)N(CC(=O)O)CC(=O)O` [Vb, (R,R)-{[2-{[2-(Bis-carboxymethyl-amino)-propyl]-carboxymethyl-amino}-1-(4-nitro-benzyl)-ethyl]-carboxymethyl-amino}-acetic acid] here?
Answer: considerably better complexing properties than compounds VIa and VIb
